Assay results taken from patent US20120252721A1 (priority 2011, published 2012).

Columns and labels:
[1] = test system: HCV genotype 1b Con1 strain subgenomic luciferase replicon (Zluc); assay: Luciferase replicon assay, genotype 1b; assay type: cell-based; conditions: Hepatitis C virus
Description: (§1) The HCV luciferase replicon assay measures the ability of a test compound to inhibit HCV replication in cell culture after 3 days of treatment in a human hepatoma cell line (Huh-7) bearing an HCV replicon containing a luciferase-neomycin phosphotransferase fusion gene. The inhibition of HCV replication was measured by quantification of luciferase protein expression. Briefly, Huh-7 cells containing either the HCV genotype 1a H77 strain or genotype 1b Con1 strain subgenomic luciferase replicon (H1a-luc or Zluc, respectively) were grown in DMEM containing glucose, L-glutamine and sodium pyruvate, 10% fetal bovine serum (FBS), 100 IU/mL penicillin, 100 μg/mL streptomycin, 2 mM GlutaMAX, non-essential amino acids and 0.25 (H1a-luc) or 0.5 (Zluc) mg/mL G418. GlutaMAX was obtained from Invitrogen, Corp.; all other media reagents were obtained from Mediatech, Inc. For dose-response testing, the cells were seeded in 96-well plates at 1×10^4 (H1a-luc) or 7.5×10^3 (Zluc) cells/well in a volume of 50 μL, and incubated at 37° C./5% CO2. Three hours after plating, 50 μL of ten 5-fold serial dilutions of compound were added, and cell cultures were incubated at 37° C./5% CO2 for 72 hours. In all cases, Huh-7 cells lacking the HCV replicon served as negative control. To assess luciferase expression, the media/compound was removed from the plates and ONE-glo Luciferase assay reagent (Promega) was added to each well. The assay plates were shaken for 3 minutes at room temperature and luciferase activity for each well was measured with a 1 sec read time on the Victor^3V multilabel counter using a 700 nm cut-off filter (Perkin Elmer). EC50 values were calculated from dose response curves from the resulting best-fit equations determined by Microsoft Excel and XLfit 4.1 software.

HCV genotype 2a = assay: Genotype 2a assay (NS5A-intergenotypic luciferase replicon / genotype 2a infectious virus assay); assay type: cell-based; conditions: Hepatitis C virus, read-out: EC50 2a
Text: (§2) The nucleotide sequences of the NS5A region of genotype 2a (GenBank Accession # AB047639), genotype 3a (GenBank Accession #D17763), and genotype 4a (GenBank Accession# DQ418788) were synthesized by an outside vendor. The NS5A region of each of these genotypes included the first 11 amino acids of the protease recognition sequence of genotype 1b, as well as the last 10 amino acids of genotype 1b. The NS5A gene cassettes were excised with site specific restriction endonucleases and ligated into a ZS11-luciferase genotype 1b backbone (backbone contains the genotype 1b NS3 protease, NS4a, NS4b, and NS5b coding regions) with similarly cut restriction enzyme sites. Thus, the newly constructed plasmid contains a genotype 2a-, 3a- or 4a-specific NS5A gene within the 1b-replicon.
(§3) These new intergenotypic plasmids were used to establish stable cell lines. RNA was generated from the NS5A intergenotypic plasmids and used in conjunction with a lipofectin reagent to transfect a cured Huh7 cell line. Transfected cells were selected for with G418. After selection has occurred the stable cell lines were propagated, tested for luciferase activity, and RT-PCR with genotype specific primers (either 1a, 2a, 3a, or 4a). Stable cell lines containing the intergenotypic replicon were then fully sequenced and analyzed for proper expression of NS3, NS5A and NS5B proteins.
(§4) Drug titration analysis was performed using the luciferase replicon assay described herein.
The genotype 2a infectious virus assay measures the ability of a test compound to inhibit HCV replication in cell culture after 5 days of treatment at the time of HCV genotype 2a virus infection of a permissive human hepatoma cell line (HPC cells). The inhibition of HCV replication was measured by quantification of HCV core protein expression by an enzyme-linked immunosorbent assay (ELISA). Briefly, HPC cells were grown in DMEM containing glucose, L-glutamine and sodium pyruvate, 10% FBS, 100 IU/mL penicillin, 100 μg/mL streptomycin, 2 mM GlutaMAX, and non-essential amino acids. GlutaMAX was obtained from Invitrogen, Corp.; all other media reagents were obtained from Mediatech, Inc. For dose-response testing, ninety-six-well plates were seeded with HPC cells at a density of 2.5×10^3 cells/well in a volume of 50 μL, and incubated at 37° C./5% CO2. Three hours after plating, 50 μL of ten 5-fold serial dilutions of compound and 100 μL of genotype 2a virus were added, and cell cultures were incubated at 37° C./5% CO2. In all cases, mock infected HPC cells served as negative control. At 16 hours post treatment and infection, the virus inoculum was removed by aspiration. The cultures were treated at the same final concentrations of drug diluted in media and incubated for 4 additional days at 37° C./5% CO2. Subsequently, the core ELISA was performed as follows. The plates were fixed for 90 seconds with acetone/methanol (1:1, v/v), washed three times with KPL wash solution (KPL, Inc.), blocked for 1 hr at room temperature with TNE buffer containing 10% FBS and then incubated for 2 hr at 37° C. with the anti-HCV core mouse monoclonal antibody (Thermo Scientific) diluted in the same buffer. After washing three times with KPL wash solution, the cells were incubated for 1 hr at 37° C. with an anti-mouse immunoglobulin G-peroxidase conjugate in TNE/10% FBS. After washing as described above, the reaction was developed with O-phenylenediamine (Invitrogen). The reaction was stopped after 30 min with 2 NH2SO4, and absorbance was read at 490 nm in a Victor^3V 1420 multilabel counter (Perkin Elmer) and EC50 concentrations were determined using Microsoft Excel and XLfit 4.1 software.
The HCV luciferase replicon assay measures the ability of a test compound to inhibit HCV replication in cell culture after 3 days of treatment in a human hepatoma cell line (Huh-7) bearing an HCV replicon containing a luciferase-neomycin phosphotransferase fusion gene. […]

[2] = test system: HCV genotype 3a NS5A within the 1b-replicon; assay: Luciferase replicon assay, NS5A-intergenotypic stable cell line genotype 3a; assay type: cell-based; conditions: Hepatitis C virus, read-out: EC50 3a
Text: as §2, §3, §4, §1

[3] = test system: HCV genotype 4a NS5A within the 1b-replicon; assay: Luciferase replicon assay, NS5A-intergenotypic stable cell line genotype 4a; assay type: cell-based; conditions: Hepatitis C virus, read-out: EC50 4a
Text: as §2, §3, §4, §1

[4] = test system: HCV genotype 1a H77 strain subgenomic luciferase replicon (H1a-luc); assay: Luciferase replicon assay, genotype 1a; assay type: cell-based; conditions: Hepatitis C virus; genotype 1a; read-out: EC50 1a
Description: as §4, §1

in vitro = assay type: cell-based, human; conditions: human; Table 1B, cellular viability
Description: (§5) For cytotoxicity evaluation, HPC cells were treated with compounds as described above in the absence of the genotype 2a virus and cellular viability was monitored using the Cell Titer 96 AQueous One Solution Cell Proliferation Assay (Promega). Plates were then read at 490 nm in a Victor^3V 1420 multilabel counter (Perkin Elmer) and CC50 concentrations were determined using Microsoft Excel and XLfit 4.1 software.
as §5, with “H1a-luc or Zluc” for “HPC”, “above” for “above in the absence of the genotype 2a virus”

HCV = conditions: combination therapy (Poynard et al.); cited from earlier work

| Compound | EC50 [1] | EC50 (HCV genotype 2a) | EC50 [2] | EC50 [3] | EC50 [4] | CC50 (in vitro) | sustained efficacy, share of patients (HCV) |
| --- | --- | --- | --- | --- | --- | --- | --- |
| COC(=O)N[C@H](C(=O)N1CCC[C@H]1c1ncc(-c2ccc(-c3cc4sc(-c5ccc6[nH]c([C@@H]7CCCN7C(=O)[C@H](NC(=O)OC)c7ccccc7)nc6c5)cc4s3)cc2)[nH]1)C(C)C [Compound A194, [(S)-1-((S)-2-{4-[4-(5-{(S)-2-[1-((R)-2-methoxycarbonylamino-2-phenyl-acetyl)-pyrrolidin-2-yl]-3H-benzoimidazol-5-yl}-thieno[3,2-b]thiophen-2-yl)-phenyl]-1H-imidazol-2-yl}-pyrrolidine-1-carbonyl)-2-methyl-propyl]-carbamic acid methyl ester] | < 0.1 nM | 1 to 10 nM | 0.1 to 1 nM | < 0.1 nM | 0.1 to 1 nM | > 75 µM |  |
| COC(=O)N[C@H](C(=O)N1CCC[C@H]1c1nc2ccc(-c3csc4c(C#Cc5cnc([C@@H]6CCCN6C(=O)[C@H](NC(=O)OC)c6ccccc6)[nH]5)csc34)cc2[nH]1)C(C)C [Compound A206] | < 0.1 nM | < 0.1 nM | < 0.1 nM | < 0.1 nM |  | > 75 µM |  |
| COC(=O)N[C@@H](C(=O)N1CCCC1c1nc2ccc(-c3csc4c(-c5ccc6[nH]c(C7CCCN7C(=O)[C@H](NC(=O)OC)C(C)C)nc6c5)csc34)cc2[nH]1)c1ccccc1 (stereo partly drawn) [Compound A208] | < 0.1 nM | < 0.1 nM | < 0.1 nM | < 0.1 nM | < 0.1 nM | > 75 µM |  |
| alpha-interferon and ribavirin |  |  |  |  |  |  | about 40% |
| COC(=O)NC(C(=O)N1CCCC1c1ncc(-c2cc3sc(-c4ccc5[nH]c(C6CCCN6C(=O)C(NC(=O)OC)C(C)C)nc5c4)cc3s2)[nH]1)C(C)C (stereo in doubt) [Compound A176, ((S)-1-{(S)-2-[5-(5-{(S)-2-[1-((S)-2-methoxycarbonylamino-3-methyl-butyryl)-pyrrolidin-2-yl]-3H-benzoimidazol-5-yl}-thieno[3,2-b]thiophen-2-yl)-1H-imidazol-2-yl]-pyrrolidine-1-carbonyl}-2-methyl-propyl)-carbamic acid methyl ester] | < 0.1 nM | 0.1 to 1 nM | 0.1 to 1 nM | 0.1 to 1 nM | 0.1 to 1 nM | 10 to 75 µM |  |
